Common to all, as to type: cell-based, Camptotheca acuminata
Assay [1] relates to camptothecin hydroxylases (CPTHs), Ca32236 (CPT 10-hydroxylase) and Ca32229 (CPT 11-hydroxylase). Nature of the assay: In vivo conversion in yeast expressing CPT hydroxylases (enzyme not distinguished). As to conditions: for acceptance as substrate (substrate specificity, FIG. 9): Ca32236 and Ca32229, different conversion rates; for conversion rate to hydroxylated product, scale-up: 50 μM substrate, after 48-hr inoculation, LCMS. From the text:
(§1) For heterologous expression of Flag-tagged CYP450s in yeast (Saccharomyces cerevisiae), the full-length coding region of each CYP450 candidate was cloned between SpeI and NcoI restriction sites of MCS1 of the dual plasmid pESC-Leu2d with a cytochrome P450 reductase (CPR) in MCS2 (Dang et al 2018, Nature Chemical Biology 14, 760-763; Rot al 2008, BMC biotechnology 8, 83) yielding pESC-Leu2d::CYP/CPR using In-Fusion cloning system (Takara Clontech). The resulted pESC-Leu2d::CYP/CPR was transformed to the protease-deficient yeast strain YPL 154C:Pep4KO, and yeast harbouring pESC-Leu2d::CPR was used as the negative control. To optimize HCPT production, Δerg6 Δtop1 yeast double mutant strain SMY75-1.4A43 was used, which was previously generated to allow better penetration of, and improved resistance to, topoisomerase I inhibitors such as CPT. The conditions for yeast culture, microsome preparation, and immunoblot analysis are further described below.
(§2) For screening in vivo CPT oxidation activities, 10 μM CPT was fed to 100-μL, cultures of YPLC 154C:Pep4KO yeast transformed with the vector for 48 h. The culture volume can be scaled up to 2 L with the camptothecin concentration up to 50 μM to produce sufficient products for structural characterization and/or semi-synthesis of camptothecin derivatives. Standard in vitro assays were performed at 30 C for 1 hour in 100 μL of 100 mM HEPES-NaOH (pH 7.5) containing […] of total microsomal proteins, 50 μM substrate (FIGS. 6) and 250 μM NADPH on a gyratory shaker with agitation (750 rpm). Reactions were stopped by adding 800 μL methanol. The reaction mixture was extracted twice with methanol to precipitate and remove proteins. The supernatant was subjected to LC-MS/MS analysis
A calibration curve using camptothecin from 0-50 nM was made for quantification. Peaks areas of LC-MS chromatograms were calculated using MassLynx and TargetLynx from Waters and normalized. The amount of substrate consumption, product formation, conversion, and total product yield was quantified using corresponding calibration curves.
To generate sufficient amounts of HCPTs (10 and 11HCPT) and 7-ethyl-HCPT (7-ethyl-10 and 11HCPT) for the synthesis of topotecan, irinotecan and other compounds, enzymatic reactions was scaled up. The transgenic yeast strain was inoculated in 2 mL of synthetic complete medium lacking leucine (SC-Leu) containing 2% (w/v) glucose and cultured overnight at 30° C. and 275 rpm. The culture was subsequently diluted to an OD600 of 0.05 in SC-Leu supplemented with 2% (w/v) glucose and cultured for 16 hr. The yeast was then harvested and sub-cultured for 48 hr in YPA medium containing 2% (w/v) galactose, and 10% glycerol to induce the production of recombinant CYP450s. CPT or 7-ethyl-CPT substrate was fed directly into the culture to reach a final concentration of 50 μM as soon as the yeast was switched from SC-Leu to YPA medium. After 48-hr inoculation, a conversion rate of approximately 70% from CPT or 7-ethyl-CPT to its hydroxylated product was obtained and confirmed by LCMS analysis. The supernatant was collected by centrifugation at 4000 rpm, for 5 minutes. HCPT and 7-ethyl-HCPT were extracted out of reaction matrix by liquid-liquid extraction with ethyl acetate and chloroform, respectively. The solvent was removed by using a rotary evaporator to obtain crude HCPT and 7-ethyl-HCPT substrates for chemical synthesis to topotecan and irinotecan. HCPT and 7-ethyl-HCPT were purified by semi-preparative HPLC prior to the synthesis of derivatives.
A key advantage of the cytochrome P450 monooxygenase enzymes lies in the opportunity to functionalize the inert C—H bond and to further diversify the products to obtain valuable CPT-based scaffolds. […] First, the enzymatic conversion of CPT to HCPTs in yeast expressing CPT hydroxylases was optimized. The initial in vivo conversion rate maximized at 10% (FIG. 2), possibly because CPT is insoluble and the native yeast topoisomerase I is sensitive to CPT. […]

Assay [2] deals with Ca32236/CPT10H. Put plainly: In vivo yeast biotransformation / substrate scope assay with CPT 10-hydroxylase. As to conditions: for Conversion rate (%): substrate converted to hydroxylated product, yeast in vivo assay, 1 L culture, calculated based on LCMS analysis.
Description: as §1, §2
(§3) For routine yeast culture, the transgenic yeast strain was inoculated in 2 mL of synthetic complete (SC) medium lacking leucine (SC-Leu) containing 2% (w/v) glucose and cultured overnight at 30 °C and 250 rpm. The culture was subsequently diluted 100-fold to an OD600 of 0.05 in SC-Leu supplemented with 2% (w/v) glucose and cultured for 16 hr. Yeast was then harvested and sub-cultured for 24 hr in YPA medium containing 2% (w/v) galactose to induce the production of recombinant CYP450s. Yeast cells were harvested by centrifugation and lysed for 2 min using a micro-bead beater (VWR) and 500-μm diameter glass beads in TES (0.6 M sorbitol in TE) buffer. The resulting lysate was subsequently centrifuged at 10,000 g for 15 min at 4 C. The supernatant was then transferred to a new tube and centrifuged at 40,000 g for 60 min at 4 C. Finally, the pellet containing microsomes was resuspended with TEG buffer (20% (v/v) glycerol in TE). Expression of Ca32229 and Ca32236 was confirmed by immunoblot analysis of microsomal fractions prepared from S. cerevisiae cultures harbouring the pESC-Leu2d::CPR/Ca32229 and pESC-Leu2d::CPR/Ca32236 vectors using α-FLAG M2 antibodies (ThermoFisher Scientific) detectable with SuperSignal West Pico Chemiluminescent Substrate (ThermoFisher Scientific) to probe epitope-tagged recombinant proteins (FIG. 6).
(§4) Enzyme assays were analyzed by ultra-performance liquid chromatography (UPLC) on a Xevo TQ-S Cronos Triple Quadrupole Mass Spectrometry (Waters). For all studies, chromatography was performed on an XBridge BEH XP (10×2.1 mm, 1.7 μm) column at a flow rate of 0.6 mL.min−1. The column was equilibrated in solvent A (0.1% formic acid) and the following elution conditions were used: 0 min, 5% B (100% acetonitrile); from 0 to 3.5 min, 35% B; from 3.5 min to 3.75 min, 100% B; 3.75 min to 4.75, 100% B; 4.75 to 6 min, 5% B to re-equilibrate the column. Data were analyzed with MassLynx and TargetLynx (Waters).
(§5) A calibration curve using camptothecin from 0-50 nM was made for quantification. Peaks areas of LC-MS chromatograms were calculated using MassLynx and TargetLynx from Waters and normalized. […]

Assay [3] relates to Ca32229/CPT11H. Nature of the assay: In vivo yeast biotransformation / substrate scope assay with CPT 11-hydroxylase. As to conditions: for Conversion rate (%): substrate converted to hydroxylated product, yeast in vivo assay, 1 L culture, calculated based on LCMS analysis; for conversion / acceptance as substrate: substrate scope, Example 4.
Description: as §1, §2, §3, §4, §5

A value given as a limit tells only on which side of the number the result lay.

Turning to evodiamine, the “acceptance as substrate (substrate specificity, FIG. 9)” value in assay [1] is given as “accepted as substrates”.
As for `CC[C@@]1(O)C(=O)OCc2c1cc1n(c2=O)Cc2cc3c(N)cccc3nc2-1` [Compound 9-AminoCPT, 9-amino-camptothecin], the “Conversion rate (%)” value in assay [2] was 9%. Also, the “conversion rate” value in assay [2] (substrate scope, Example 4) amounted to 9%. Also, in assay [3], the “Conversion rate (%)” value was 9% and the “conversion” value was 9%. Further, in assay [1], the “acceptance as substrate (substrate specificity, FIG. 9)” value is listed as “accepted as substrates”.
On to `CC[C@@]1(O)C(=O)OCc2c1cc1n(c2=O)Cc2cc3ccccc3nc2-1` [CPT, camptothecin], for which the “Conversion rate (%)” value in assay [2] is 67%. For the same compound, the “Conversion rate (%)” value in assay [3] is 62%. In assay [1], the “conversion rate to hydroxylated product, scale-up” value is listed as “approximately 70%” and the “acceptance as substrate (substrate specificity, FIG. 9)” value is on record as “accepted as substrates”. In assay [1] (CPT to HCPTs, before optimization), the “initial in vivo conversion rate” value is at most 10%. In addition, the “conversion in SMY75-1.4A yeast strain” value in assay [1] (SMY75-1.4A (Δerg6 Δtop1) yeast strain) is on record as “up to 67%”. In addition, the “yield (conversion) after growth optimization” value in assay [1] (transgenic yeast in YPA medium with 2% galactose and 10% glycerol for 48 hrs) is “up to 40%”.
Regarding `CCc1c2c(nc3ccccc13)-c1cc3c(c(=O)n1C2)COC(=O)[C@]3(O)CC` [Compound 7-EthylCPT, 7-ethylcamptothecin], the “Conversion rate (%)” value in assay [2] is reported as 8%. Besides, in assay [2] (substrate scope, Example 4), the acceptance as substrate result is “accepted”. In addition, in assay [3], the “Conversion rate (%)” value is 32% and the acceptance as substrate entry was “accepted”. In assay [1], the “conversion rate to hydroxylated product, scale-up” value is “approximately 70%” and the “acceptance as substrate (substrate specificity, FIG. 9)” value is recorded as “accepted as substrates”.
Consider `CCC1(O)C(=O)OCc2c1cc1n(c2=O)Cc2cc3ccc(O)cc3nc2-1` (stereo not drawn) [Compound 11HCPT, 11-hydroxycamptothecin], for which the acceptance as substrate result in assay [2] (substrate scope, Example 4) is “not accepted”.
As for `CCC1(O)C(=O)OCc2c1cc1n(c2=O)Cc2cc3cc(O)ccc3nc2-1` (stereo not drawn) [10-HydroxyCPT, 10-hydroxycamptothecin], in assay [3], the “Conversion rate (%)” value is on record as 11%, the acceptance as substrate result is recorded as “accepted” and the “conversion” value worked out at 7%. Besides, the “acceptance as substrate (substrate specificity, FIG. 9)” value in assay [1] was “accepted as substrates”.

The values above are taken from patent US20240084272A1, “CYTOCHROME P450 MONOOXYGENASES AND USES THEREOF” (THE UNIVERSITY OF BRITISH COLUMBIA, priority 2020, published 2024).
